Where a SMILES comes first, the peptide text is derived from it.
Biological target: HLA B*0801 (Homo sapiens, UniProt P01889, A93T/A95T/D138N/E176V/E187T/K202T/Q94N/R180D/S35A/V36M/Y33D/Y91F)
Assay: biochemical
Type: binding

Structure (SMILES)	IC50
CC[C@H](C)[C@H](NC(=O)[C@@H](NC(=O)[C@H](C)N)[C@@H](C)O)C(=O)N[C@@H](CCC(N)=O)C(=O)N[C@@H](CCCNC(=N)N)C(=O)N[C@@H](Cc1ccccc1)C(=O)N[C@@H](CO)C(=O)N[C@@H](CO)C(=O)N[C@@H](CC(C)C)C(=O)O [3102.0756] (H-ATIQRFSSL-OH)	3.3 nM
CC[C@H](C)[C@H](NC(=O)[C@H](Cc1c[nH]cn1)NC(=O)[C@H](C)NC(=O)[C@H](Cc1ccc(O)cc1)NC(=O)[C@H](CC(C)C)NC(=O)[C@@H](N)CC(C)C)C(=O)N[C@@H](CC(N)=O)C(=O)N[C@@H](C)C(=O)N[C@@H](CC(C)C)C(=O)O [3102.0757] (H-LLYAHINAL-OH)	1.4 nM
N=C(N)NCCC[C@H](NC(=O)[C@H](CCCNC(=N)N)NC(=O)[C@@H](N)CC(=O)O)C(=O)N[C@@H](CO)C(=O)N[C@@H](Cc1ccccc1)C(=O)N[C@@H](Cc1ccccc1)C(=O)N[C@@H](CCCCN)C(=O)N[C@@H](CS)C(=O)N[C@@H](Cc1ccccc1)C(=O)O [3102.0758] (H-DRRSFFKCF-OH)	76 nM
CC(C)[C@H](NC(=O)[C@H](Cc1ccc(O)cc1)NC(=O)[C@H](CCCNC(=N)N)NC(=O)[C@H](Cc1ccccc1)NC(=O)[C@H](CS)NC(=O)[C@H](CCCCN)NC(=O)[C@H](Cc1ccccc1)NC(=O)[C@@H](N)Cc1ccccc1)C(=O)N[C@@H](Cc1ccccc1)C(=O)O [3102.0760] (H-FFKCFRYVF-OH)	11 nM
CSCC[C@H](NC(=O)CNC(=O)[C@@H](N)CO)C(=O)N[C@H](C(=O)N[C@@H](Cc1ccccc1)C(=O)N[C@H](C(=O)N[C@@H](CO)C(=O)N1CCC[C@H]1C(=O)N[C@H](C(=O)O)C(C)C)[C@@H](C)O)C(C)C [3102.0762] (H-SGMVFTSPV-OH)	77 nM
CC(C)C[C@H](NC(=O)[C@@H](N)Cc1c[nH]cn1)C(=O)N[C@@H](CCCCN)C(=O)N[C@@H](Cc1c[nH]cn1)C(=O)N[C@@H](Cc1c[nH]cn1)C(=O)N[C@@H](CCCCN)C(=O)N[C@@H](CCC(N)=O)C(=O)N[C@@H](CS)C(=O)N[C@H](C(=O)O)C(C)C [3102.0763] (H-HLKHHKQCV-OH)	4.5 nM
CC(C)C[C@H](NC(=O)[C@@H]1CCCN1C(=O)[C@H](CS)NC(=O)[C@H](CCCNC(=N)N)NC(=O)[C@H](CCCNC(=N)N)NC(=O)[C@H](CCCNC(=N)N)NC(=O)[C@H](CC(C)C)NC(=O)[C@H](Cc1ccccc1)NC(=O)[C@@H](N)CC(C)C)C(=O)O [3102.0764] (H-LFLRRRCPL-OH)	0.13 nM
CC[C@H](C)[C@H](N)C(=O)N[C@@H](CO)C(=O)N[C@@H](CCC(=O)O)C(=O)N[C@@H](CO)C(=O)N[C@@H](CCCNC(=N)N)C(=O)N[C@@H](Cc1ccccc1)C(=O)N[C@@H](CCC(N)=O)C(=O)N[C@@H](CO)C(=O)N[C@@H](CC(C)C)C(=O)O [3102.0767] (H-ISESRFQSL-OH)	40 nM
CC[C@H](C)[C@H](NC(=O)[C@H](CCCCN)NC(=O)[C@H](Cc1c[nH]cn1)NC(=O)[C@H](CCCCN)NC(=O)[C@@H](NC(=O)[C@H](CCCCN)NC(=O)[C@H](CO)NC(=O)[C@@H](N)CCSC)[C@@H](C)CC)C(=O)N[C@@H](Cc1ccccc1)C(=O)O [3102.0769] (H-MSKIKHKIF-OH)	0.84 nM
CC(C)C[C@H](NC(=O)[C@H](C)NC(=O)[C@H](CO)NC(=O)[C@H](Cc1ccccc1)NC(=O)[C@H](CCCCN)NC(=O)[C@H](CCCNC(=N)N)NC(=O)[C@H](CC(C)C)NC(=O)[C@H](Cc1ccc(O)cc1)NC(=O)[C@@H](N)CO)C(=O)O [3102.0770] (H-SYLRKFSAL-OH)	6 nM
CC(C)C[C@H](NC(=O)[C@H](Cc1ccccc1)NC(=O)[C@H](CCC(=O)O)NC(=O)[C@H](Cc1ccccc1)NC(=O)[C@H](CCCCN)NC(=O)[C@H](CCCCN)NC(=O)[C@H](CC(C)C)NC(=O)[C@H](CC(C)C)NC(=O)CN)C(=O)O [3102.0771] (H-GLLKKFEFL-OH)	47 nM
CC[C@H](C)[C@H](NC(=O)[C@H](CCC(=O)O)NC(=O)[C@H](CCCNC(=N)N)NC(=O)[C@H](CC(C)C)NC(=O)[C@@H](N)CCC(=O)O)C(=O)N[C@@H](Cc1ccccc1)C(=O)N[C@@H](CCCNC(=N)N)C(=O)N[C@@H](CCCNC(=N)N)C(=O)N[C@@H](CC(C)C)C(=O)O [3102.0772] (H-ELREIFRRL-OH)	27 nM
CC[C@H](C)[C@H](NC(=O)[C@H](CO)NC(=O)CNC(=O)[C@H](CCCCN)NC(=O)[C@H](CCCNC(=N)N)NC(=O)[C@H](CC(C)C)NC(=O)[C@H](CCCNC(=N)N)NC(=O)[C@H](CCCNC(=N)N)NC(=O)[C@@H](N)Cc1ccccc1)C(=O)O [3102.0773] (H-FRRLRKGSI-OH)	3 nM
CSCC[C@H](NC(=O)[C@@H](N)CCCNC(=N)N)C(=O)N[C@@H](CCCNC(=N)N)C(=O)N[C@@H](Cc1ccccc1)C(=O)N[C@@H](CCCCN)C(=O)N[C@@H](CCCCN)C(=O)NCC(=O)N[C@@H](C)C(=O)N[C@H](C(=O)O)C(C)C [3102.0775] (H-RMRFKKGAV-OH)	5.4 nM
CSCC[C@H](NC(=O)[C@H](C)NC(=O)[C@@H](N)CCSC)C(=O)N[C@@H](Cc1ccccc1)C(=O)N[C@@H](Cc1ccc(O)cc1)C(=O)N[C@@H](C)C(=O)N[C@@H](Cc1c[nH]cn1)C(=O)N[C@@H](C)C(=O)N[C@@H](CC(C)C)C(=O)O [3102.0776] (H-MAMFYAHAL-OH)	1.2 nM
CC[C@H](C)[C@H](N)C(=O)N[C@@H](CCSC)C(=O)N[C@@H](CCCNC(=N)N)C(=O)N[C@@H](CCSC)C(=O)N[C@@H](CCCNC(=N)N)C(=O)N[C@@H](Cc1ccccc1)C(=O)N[C@@H](CCCCN)C(=O)N[C@@H](CCCCN)C(=O)NCC(=O)O [3102.0777] (H-IMRMRFKKG-OH)	62 nM
CC[C@H](C)[C@H](NC(=O)[C@H](CC(N)=O)NC(=O)[C@@H](N)CCCNC(=N)N)C(=O)N[C@@H](C)C(=O)N[C@@H](CCCNC(=N)N)C(=O)N[C@@H](Cc1c[nH]cn1)C(=O)N[C@@H](CC(C)C)C(=O)N[C@@H](C)C(=O)N[C@@H](CC(C)C)C(=O)O [3102.0780] (H-RNIARHLAL-OH)	3.2 nM
CC[C@H](C)[C@H](NC(=O)[C@@H](N)Cc1ccccc1)C(=O)N[C@@H](CCCCN)C(=O)N[C@@H](CCC(N)=O)C(=O)NCC(=O)N[C@@H](Cc1ccccc1)C(=O)N[C@@H](CC(N)=O)C(=O)N[C@@H](CC(N)=O)C(=O)N[C@@H](CC(C)C)C(=O)O [3102.0781] (H-FIKQGFNNL-OH)	0.91 nM
CC[C@H](C)[C@H](NC(=O)[C@H](CC(C)C)NC(=O)[C@@H](N)CC(N)=O)C(=O)N[C@H](C(=O)N[C@@H](Cc1c[nH]cn1)C(=O)N[C@H](C(=O)N[C@@H](C)C(=O)N[C@@H](C)C(=O)N[C@@H](CC(C)C)C(=O)O)[C@@H](C)O)[C@@H](C)CC [3102.0785] (H-NLIIHTAAL-OH)	1.6 nM
CSCC[C@H](NC(=O)[C@H](CCCNC(=N)N)NC(=O)[C@H](CCCCN)NC(=O)[C@H](CO)NC(=O)[C@H](CCCCN)NC(=O)[C@H](C)NC(=O)[C@@H](N)Cc1ccc(O)cc1)C(=O)N[C@@H](C)C(=O)N[C@@H](CCC(=O)O)C(=O)O [3102.0786] (H-YAKSKRMAE-OH)	31 nM
CC[C@H](C)[C@H](NC(=O)[C@@H](N)CCCNC(=N)N)C(=O)N[C@@H](CC(C)C)C(=O)N[C@@H](Cc1ccccc1)C(=O)N[C@@H](CCCNC(=N)N)C(=O)N[C@@H](CCCCN)C(=O)N1CCC[C@H]1C(=O)N[C@@H](CO)C(=O)N[C@@H](CC(C)C)C(=O)O [3102.0787] (H-RILFRKPSL-OH)	32 nM
CC[C@H](C)[C@H](NC(=O)[C@H](Cc1ccccc1)NC(=O)[C@H](CC(C)C)NC(=O)[C@@H](NC(=O)[C@H](CC(C)C)NC(=O)[C@H](Cc1ccccc1)NC(=O)[C@@H]1CCCN1C(=O)[C@@H](NC(=O)[C@@H](N)CC(C)C)[C@@H](C)CC)[C@@H](C)CC)C(=O)O [3102.0791] (H-LIPFLILFI-OH)	50 nM
CC[C@H](C)[C@H](NC(=O)[C@H](Cc1c[nH]cn1)NC(=O)[C@@H](NC(=O)[C@@H](N)CCSC)C(C)C)C(=O)N[C@@H](Cc1ccc(O)cc1)C(=O)N[C@@H](Cc1ccccc1)C(=O)N[C@H](C(=O)N[C@@H](CO)C(=O)N[C@@H](CC(C)C)C(=O)O)C(C)C [3102.0878] (H-MVHIYFVSL-OH)	1.4 nM
CC[C@H](C)[C@H](NC(=O)[C@H](Cc1c[nH]cn1)NC(=O)[C@H](CC(N)=O)NC(=O)[C@H](CCCCN)NC(=O)[C@H](CCCNC(=N)N)NC(=O)[C@H](Cc1ccccc1)NC(=O)[C@H](CCCNC(=N)N)NC(=O)[C@@H](NC(=O)[C@@H](N)Cc1ccc(O)cc1)[C@@H](C)CC)C(=O)O [3102.0888] (H-YIRFRKNHI-OH)	1.4 nM
CC[C@H](C)[C@H](NC(=O)[C@@H](N)Cc1ccccc1)C(=O)N[C@@H](C)C(=O)N[C@@H](CCCCN)C(=O)N[C@@H](Cc1c[nH]cn1)C(=O)N[C@@H](Cc1ccccc1)C(=O)N[C@@H](CC(C)C)C(=O)N[C@@H](CCC(=O)O)C(=O)N[C@@H](CC(C)C)C(=O)O [3102.0900] (H-FIAKHFLEL-OH)	1.3 nM
CC[C@H](C)[C@H](NC(=O)[C@H](Cc1ccccc1)NC(=O)[C@H](CCCCN)NC(=O)[C@@H](NC(=O)[C@@H](N)Cc1ccc(O)cc1)[C@@H](C)CC)C(=O)N[C@@H](Cc1ccccc1)C(=O)N[C@@H](CC(C)C)C(=O)N[C@@H](CCC(N)=O)C(=O)N[C@@H](CCSC)C(=O)O [3102.0918] (H-YIKFIFLQM-OH)	8.6 nM
CC[C@H](C)[C@H](NC(=O)[C@H](Cc1ccc(O)cc1)NC(=O)[C@H](C)NC(=O)[C@H](Cc1ccccc1)NC(=O)[C@H](Cc1ccc(O)cc1)NC(=O)[C@H](Cc1ccc(O)cc1)NC(=O)[C@H](CCCNC(=N)N)NC(=O)[C@H](CCC(=O)O)NC(=O)CN)C(=O)O [3102.0936] (H-GERYYFAYI-OH)	6.9 nM
CC[C@H](C)[C@H](NC(=O)[C@H](CCC(N)=O)NC(=O)[C@H](CCC(=O)O)NC(=O)[C@H](Cc1ccccc1)NC(=O)[C@H](Cc1ccc(O)cc1)NC(=O)[C@H](CC(=O)O)NC(=O)[C@H](CCCNC(=N)N)NC(=O)[C@H](CC(C)C)NC(=O)[C@@H](N)CCC(=O)O)C(=O)O [3102.0939] (H-ELRDYFEQI-OH)	13 nM
CC[C@H](C)[C@H](NC(=O)[C@@H](NC(=O)[C@H](CS)NC(=O)[C@@H](NC(=O)[C@H](CCCNC(=N)N)NC(=O)[C@H](CO)NC(=O)[C@H](CCCCN)NC(=O)[C@H](CO)NC(=O)[C@@H](N)CC(N)=O)[C@@H](C)CC)C(C)C)C(=O)O [3102.0966] (H-NSKSRICVI-OH)	11 nM

Source: publication PMC2248166, “Quantitative peptide binding motifs for 19 human and mouse MHC class I molecules derived using positional scanning combinatorial peptide libraries” (Immunome Research, 2008)
